According to patent publication US20120034613A1, “Apparatus and Method for Testing Relationships Between Gene Expression and Physical Appearance of Skin” (NSE Products, Inc., priority 2010, published 2012):

How the values were obtained:
[1] = tested on: human equivalent skin tissue; assay: RT-rt-PCR (TaqMan Low Density Arrays) gene expression confirmation, agent-exposed vs unexposed skin model; type: cell-based; conditions: Salicin 0.5% vs. Untreated Control, HPRT as Endogenous Control Gene
Procedure: Preferably this is done with the same skin model as used with the microarray technology for measuring global gene expression. The qualities of the agent (concentration, solvent, etc.) should normally be the same.
In some embodiments, the agent tested is salicin at a concentration of 0.5% salicin, available from Symrise Corporation (Teterborro, N.J.). The salicin is dissolved in water. Affymetrix microarray testing provides results for thousands of genes, whereas RT-rt-PCR testing provides results for a smaller gene group. For RT-rt-PCR testing, about 90 genes are tested at a time for this particular experimental design (other designs may test as many as 390 at a time on the equipment identified below). The experimenter may choose this number based on cost.
To implement this step, RT-rt-PCR is conducted for specific genes known to be involved in skin aging. In one embodiment Custom TaqMan® Low Density Arrays (TLDA's) were configured using Applied Biosystems validated gene expression assays. The validated gene expression assays contain a TaqMan® fluorescent probe and primers for each target gene. Genes for the TLDA cards are selected based on either, published literature describing the genes functional role in skin cell biology and aging and/or the previous Affymetrix testing results. (See Tables 1-4). Five endogenous control genes may be included on each card. Thus, when a particular gene assembly is tested with RT-rt-PCR, the data resulting may cover more than just the set of genes as in Table 3.
(High-Capacity cDNA Reverse Transcription Kits for 200 and 1000 Reactions Protocol (October, 2006)). cDNA was mixed with TaqMan® Universal Master Mix without UNG and loaded into the wells of the TLDA cards. The cards are run using an Applied Biosystems 7900HT instrument according to the manufacturer's cycling parameters.
As with the microassay, the analysis is done with a skin model exposed to the agent and a reference that is not exposed to the agent. The skin model not exposed to the agent may be used for calibration. The skin model may be human equivalent skin tissue. The target genes get normalized to a stable endogenous control (genes that are invariants in all cell types such as […]). This normalization is to account for variations that may occur during sample loading. The unexposed information gathered is used for comparison against the tested sample.
The formula for ΔCT (delta cycle threshold) is CT (target) minus CT (endogenous control gene). (ΔCT=CT (target)−CT (endogenous control gene)). The test system, data processing system 710 stores the data then uses process application modules 720 to take the CT values for both the exposed and unexposed and get a ΔΔCT value, which is reported for that specific gene in a log ratio scale. […] In one embodiment, data analysis is carried out according to the RQ analysis method using RQ Manager and StatMiner (v3.1) software programs.
At least part of the comparing of the data is performed by a computer system, such as the data processing system 710 (see FIG. 7) for performing data access and storage and various computations specified by software (process application modules 720) corresponding to the functions occurring at various described steps of this method. Additional process application modules 722 perform a parametric t-test with a Benjamini and Hochberg false discovery rate correction is performed to identify genes with a statistically significant p value equal to or less than 0.05. The up or down regulation of the gene is also identifiable from the RT-rt-PCR analysis. Results of the change in threshold cycle (ΔCT) values between the exposed and unexposed human skin tissues are calculated by a software program. The selected genes will have a cycle threshold of biological relevance. For these experiments, the selected genes have a cycle threshold of less than about <35, which is a value of biological relevance. […]

facial skin = assay: Cutometer measurement of extensibility of the skin, 12 week clinical study; type: in vivo, human; conditions: for Cutometer Extensibility Mean: Baseline mean 1.15
Excerpt: A single cutometer measurement was taken on the right side of the subject's face, in line with the corner of the eye and the edge of the nostril, to measure the extensibility of the skin. All clinical and corneometer measurements and evaluations were taken at baseline, week 1 (visit 2), week 4 (visit 3), week 8 (visit 4) and week 12 (visit 5). Ultrasound and cutometer measurements and evaluations were taken at baseline, week 4 (visit 3), week 8 (visit 4) and week 12 (visit 5). Completed patient's diaries were reviewed for compliance at each visit. Mean clinical grading and instrumentation scores at each visit were statistically compared to baseline scores using paired t-test. Changes from baseline were considered significant at the p≦0.05 level. Mean percent change from baseline and incidence of positive responders were calculated for all attributes. Comparisons, based on the average from baseline, were made between the test materials using analysis of variance (ANOVA).

## OCc1ccccc1O[C@@H]1O[C@H](CO)[C@@H](O)[C@H](O)[C@H]1O [Salicin, 2-(Hydroxymethyl)phenyl β-D-glucospyranoside]
[1]
  CAT gene expression Direction: down
  CAT gene expression Log10RG: −0.4768
  COL4A1 gene expression Direction: up
  COL4A1 gene expression Log10RG: 0.2086
  DSC3 gene expression Direction: down
  DSC3 gene expression Log10RG: −0.2938
  DSP gene expression Direction: down
  DSP gene expression Log10RG: −0.2223
  FN1 gene expression Direction: up
  FN1 gene expression Log10RG: 0.2411
  FOXO1 gene expression Direction: up
  FOXO1 gene expression Log10RG: 0.2383
  IL6 gene expression Direction: up
  IL6 gene expression Log10RG: 0.9322
  ITGB1 gene expression Direction: up
  ITGB1 gene expression Log10RG: 9.36E−02
  ITGB4 gene expression Direction: down
  ITGB4 gene expression Log10RG: −0.8283
  KRT1 gene expression Direction: down
  KRT1 gene expression Log10RG: −1.112
  KRT5 gene expression Direction: down
  KRT5 gene expression Log10RG: −0.445
  LOR gene expression Direction: down
  LOR gene expression Log10RG: −1.921
  PRKCA gene expression Direction: up
  PRKCA gene expression Log10RG: 0.2749
  S100A8 gene expression Direction: down
  S100A8 gene expression Log10RG: −0.6307
  S100A9 gene expression Direction: down
  S100A9 gene expression Log10RG: −0.6513
  SDC1 gene expression Direction: down
  SDC1 gene expression Log10RG: −0.3961
  SMAD7 gene expression Direction: up
  SMAD7 gene expression Log10RG: 0.2325
  SOD2 gene expression Direction: up
  SOD2 gene expression Log10RG: 0.3025
  TNC gene expression Direction: up
  TNC gene expression Log10RG: 0.1429
[1]; listed as salicin
  ITGB1 gene expression Log10RG: 0.09356
Facial skin; Week 4
  Cutometer Extensibility Mean: 1.17
Facial skin; Week 4 vs Baseline
  Cutometer Extensibility % Change: (1.8%)
Facial skin; Week 8
  Cutometer Extensibility Mean: 1.17
Facial skin; Week 8 vs Baseline
  Cutometer Extensibility % Change: (1.3%)
Facial skin; Week 12
  Cutometer Extensibility Mean: 1.26
Facial skin; Week 12 vs Baseline
  Cutometer Extensibility % Change: (9.6%)
